Patent US20150004100A1, “HETEROCYCLIC COMPOUNDS AS IMAGING PROBES OF TAU PATHOLOGY” (GE HEALTHCARE LIMITED, priority 2011, published 2015)
“Also recorded” adds a separate entry of the source.

Columns and labels:
[1] = In vivo cold bio-distribution in rat (brain uptake, LC-MS); details: for tissue uptake at 2 min / tissue uptake at 10 min / tissue uptake at 30 min / tissue uptake at 60 min: male, Wistar, brain, iv, 50 μg/rat; for tissue uptake at 10 min: 10 min p.i.; for tissue uptake at 30 min: 30 min p.i.; for tissue uptake at 60 min: 60 min p.i.; for Clearance ratio 2:30 min: rat brain, 2 min vs 30 min p.i.
Experimental: All animal studies were in compliance with local rules and regulations. Test compounds were administered by intravenous (i.v) injection through the tail vein of naïve male Wistar rats (50 μg test compound/rat). The animals were sacrificed by dislocation of the neck at 2, 10, 30, 60 min post-injection (p.i). The brain and plasma were collected from each animal. The concentration of test compound was measured in the plasma and brain homogenates using LS-MS, and calculated as % compound/g (% ID/g).

[2] = test system: Aβ+ plaques; test: Tissue binding assay (fluorescence), plaques in human AD tissue sections; design: key to Plaques (staining): −: No staining; +: weak staining; ++: moderate staining; +++: intense staining; details: for Plaques (staining): 100 μM, human AD tissue
Experimental: (§1) Human brain tissue samples from the entorhinal cortex of patients with Alzheimer's disease (AD) and healthy controls were obtained from Tissue Solutions (Tissue Solutions Ltd, Glasgow, UK). Tissue samples were collected after informed written consent, and specimens were dissected at the tissue bank and snap-frozen for cryopreservation at a time interval of between 3 and 18 h after death. The frozen tissue was embedded in TissueTek® (VWR) and sectioned using a Microm HM560 cryostat (Thermo Scientific). Serial 12 μm sections were mounted onto SuperFrost®+ glass slides (VWR) and stored a −70° C.
(§2) The binding of compounds to tau+NFTs and Aβ+ plaques in human AD tissue were evaluated based on fluorescence.
(§3) Briefly, tissue sections were defrosted and fixed in ice-cold 70% ethanol. All tissue sections were rinsed with PBS after fixation and between all subsequent incubation steps. To quench autofluorescence, tissue sections were incubated first with 0.25% KMnO4 (Sigma-Aldrich) in PBS for 12 min, and then with 0.1% […]/0.1% oxalic acid (both reagents from Sigma-Aldrich) in PBS for 1 min. The tissue sections were blocked with 2% BSA in PBS for 10 min, and then incubated with the test compounds at 100 μM concentration for 1 h at RT. […] Finally the tissue sections were rinsed in PBS, and mounted in SlowFade® mounting media (Invitrogen). Images of labelled tissue sections were captured using a Nikon digital camera connected to a Leica microscope and using the NIS Elements D software (Nikon). Images were further processed with the Photoshop® software (Adobe).

[3] = PAMPA (parallel artificial membrane permeability assay); type: in vitro ADME; details: 10 μM, 5 h at RT; criterion >−6
Experimental: The PAMPA assay is used to determine how well a compound crosses a cell membrane by measuring its passage through a phosphotidyl choline barrier. A permeability coefficient >−6 indicates high permeability across lipid membranes and is indicative of a compounds ability to cross the blood brain barrier.
A 10 μM solution was incubated on a PDVF membrane coated with a 2% phoshotidyl choline solution for 5 h at RT. Membrane penetration was measured using LC-MS.

[4] = Protein binding assay, human plasma (rapid equilibrium dialysis); type: in vitro ADME; details: % bound, criterion <99%
Experimental: (§4) The protein binding assays provide an estimate of free (unbound) fraction of the compound in the blood or brain in vivo. […] The desirable criterion for this assay is <99% of test compound bound.
(§5) Test compounds were first dissolved in DMSO to a concentration of 50 μM. This was followed by incubation in samples of human plasma and rat brain homogenates (final test concentration 1 μM). Binding of compounds to proteins was determined in the samples by rapid equilibrium dialysis after 5 and 30 min of incubation.

[5] = test system: tau+ NFTs; test: Tissue binding assay (fluorescence), NFTs in human AD tissue sections; design: key to NFTs (staining): −: No staining; +: weak staining; ++: moderate staining; +++: intense staining; details: for NFTs (staining): 100 μM, human AD tissue
Experimental: as §1, §2, §3

[6] = test system: rat liver microsomes; test: Liver microsome stability assay, rat; type: in vitro ADME; details: 1 μM, 37° C., parent compound remaining, criterion >50%
Experimental: (§6) The liver microsome stability assay provides an estimate of compound stability and rate of metabolism in vivo. The desirable criterion for this assay is >50% parent compound after 30 min.
(§7) A 1 μM compound solution was incubated with rat or human liver microsomes (20 mg/ml) at 37° C. and the amount of parent compound remaining following the incubation was determined after 5 and 30 min of incubation using LC-MS.

[7] = test system: human liver microsomes; test: Liver microsome stability assay, human; type: in vitro ADME; details: 1 μM, 37° C., parent compound remaining, criterion >50%
Experimental: as §6, §7

[8] = Protein binding assay, rat brain homogenates (rapid equilibrium dialysis); type: in vitro ADME; details: rat brain homogenate, % bound, criterion <99%
Experimental: as §4, §5

[9] = test system: Aβ+ plaques; test: Tissue binding assay (fluorescence), plaques in human AD tissue sections; design: key to Plaques (staining): −: No staining; +: weak staining; ++: moderate staining; +++: intense staining; details: human AD tissue
[10] = test system: tau+ NFTs; test: Tissue binding assay (fluorescence), NFTs in human AD tissue sections; design: key to NFTs (staining): −: No staining; +: weak staining; ++: moderate staining; +++: intense staining; details: for NFTs (staining): Table 2, human AD tissue
[11] = high test concentration, AD tissue

Compound	Plaques (staining) ([2]; Table 3)	PAMPA Log Pe [3]	fraction unbound at 1 μM [4]	NFTs (staining) ([5]; Table 3)	Liver stability Rat (% PCP) 5 min [6]	Liver stability Rat (% PCP) 30 min [6]	Liver stability Human (% PCP) 5 min [7]	Liver stability Human (% PCP) 30 min [7]	fraction unbound at 1 μM [8]	further results
COc1ccc(-n2nc(C(=O)NCCF)c3csc(N)c3c2=O)cc1 [Compound 106]	−									tissue uptake at 2 min ([1]; rat, 2 min p.i.): 0.014 %ID/g; tissue uptake at 10 min ([1]; rat): 0.001 %ID/g; tissue uptake at 30 min ([1]; rat): 0.004 %ID/g; tissue uptake at 60 min ([1]; rat): 0.001 %ID/g; Clearance ratio 2:30 min [1]: 3.5; Brain uptake (in words) ([1]; rat, cold bio-distribution): low brain uptake
COc1ccc(-n2nc(C(=O)N3CCC(CCF)CC3)c3csc(N)c3c2=O)cc1 [Compound 56]	−	−5.16	0.0372	−	94.88 % PCP	92.06 % PCP	80.98 % PCP	52.10 % PCP	0.448	
CNc1scc2c(C(=O)NC(C)C)nn(-c3ccc(OC)cc3)c(=O)c12 [Compound 87]	−			−						
CC(C)NC(=O)c1nn(-c2ccc(O)cc2)c(=O)c2c(NC(=O)OC(C)(C)C)scc12 [Compound 63]										NFTs (staining) ([5]; Table 2): −
CC(C)NC(=O)c1nn(-c2ccc(OCC(O)CF)cc2)c(=O)c2c(N)scc12 (stereo not drawn) [Compound 59]										NFTs (staining) ([5]; Table 4): −; Plaques (staining) ([2]; Table 4): −
COc1ccc(-n2nc(C(=O)N3CC[C@H](F)C3)c3csc(N)c3c2=O)cc1 [Compound 108]	−			−						
COc1ccc(-n2nc(C(=O)NC(C)C)c3csc(N(C)C)c3c2=O)cc1 [Compound 82]										Plaques (staining) ([9]; Table 2, 1 μM): −; Plaques (staining) ([9]; Table 2, 10 μM): −; NFTs (staining) ([5]; Table 2): +; Plaques (staining) ([2]; Table 2): ++
CC(C)(C)OC(=O)c1nn(-c2ccc(OCCF)cc2)c(=O)c2c(N)scc12 [Compound 104]										NFTs (staining) ([5]; Table 4): −; Plaques (staining) ([2]; Table 4): −
CC(C)NC(=O)c1nn(-c2ccc(OCCCF)cc2)c(=O)c2c(N)scc12 [Compound 61]										NFTs (staining) ([5]; Table 4): −; Plaques (staining) ([2]; Table 4): −
CC(C)NC(=O)c1nn(-c2ccc([N+](=O)[O-])cc2)c(=O)c2c(N)scc12 [Compound 105]		−5.10	0.02		81.29 % PCP	58.8 % PCP	91.5 % PCP	73.2 % PCP	0.112	Plaques (staining) ([9]; Table 2, 10 μM): −; NFTs (staining) ([5]; Table 2): ++; Binding to NFTs (in words) [5, 11]: binds to NFTs (C, D) and plaques (D); also recorded: bind to both NFTs and plaques; Plaques (staining) ([2]; Table 2): ++; Binding to plaques (in words) [2, 11]: binds to NFTs (C, D) and plaques (D); also recorded: bind to both NFTs and plaques; NFTs (staining) ([10]; 1 μM): −; NFTs (staining) ([10]; 10 μM): +; Binding preference for NFTs (in words) ([10]; lower test concentrations, AD tissue): binds preferentially to NFTs; also recorded: bind with a preference for NFTs
COc1ccc(-n2nc(C(=O)N3CCN(c4cccc(F)n4)CC3)c3csc(NC(=O)OC(C)(C)C)c3c2=O)cc1 [Compound 91]										NFTs (staining) ([5]; Table 2): −; Plaques (staining) ([2]; Table 2): −
COc1ccc(-n2nc(NCCF)c3csc(N)c3c2=O)cc1 [Compound 99]										tissue uptake at 2 min ([1]; rat, 2 min p.i.): > 0.2 %ID/g; tissue uptake at 10 min ([1]; rat): 0.092 %ID/g; tissue uptake at 30 min ([1]; rat): 0.013 %ID/g; tissue uptake at 60 min ([1]; rat): 0.001 %ID/g; Clearance ratio 2:30 min [1]: 23.8; Brain uptake and clearance (in words) ([1]; rat, from clearance ratio): rapid brain uptake followed by rapid clearance; Brain uptake % ID/g p.i ([1]; rat, i.v., 2 min p.i.): 0.31 % ID/g
COc1ccc(-n2nc(C(=O)N3CCN(c4cccc(F)n4)CC3)c3csc(N)c3c2=O)cc1 [Compound 90]		−5.51	0.0084		72.67 % PCP	53.0 % PCP	44.62 % PCP	2.57 % PCP	0.112	Plaques (staining) ([2]; Table 2): −
CC(C)NC(=O)c1nn(-c2ccc(F)cc2)c(=O)c2c(N)scc12 [Compound 14]		−4.89	0.0522		92.8 % PCP	64.0 % PCP	92.1 % PCP	61.3 % PCP	0.383	Plaques (staining) ([9]; Table 2, 1 μM): −; Plaques (staining) ([9]; Table 2, 10 μM): −; NFTs (staining) ([5]; Table 2): +; Plaques (staining) ([2]; Table 2): +; NFTs (staining) ([10]; 1 μM): −; NFTs (staining) ([10]; 10 μM): −
CC(C)NC(=O)c1nn(-c2ccc(OCCF)cc2)c(=O)c2c(NC(=O)OC(C)(C)C)scc12 [Compound 64]	−			−						
CC(C)NC(=O)c1nn(-c2ccc(O)cc2)c(=O)c2c(N)scc12 [Compound 58]		−7.52	0.068		90.03 % PCP	79.3 % PCP	100.9 % PCP	83.4 % PCP	0.506	
COc1ccc(-n2nc(C(=O)N3CCN(c4ccc(F)nc4)CC3)c3csc(N)c3c2=O)cc1 [Compound 67]	−			−						
COc1ccc(-n2nc(C(=O)N3CCC(CF)CC3)c3csc(N)c3c2=O)cc1.Cl [Compound 81]	−	−5.12	0.0498		60.12 % PCP	32.54 % PCP	91.63 % PCP	73.10 % PCP	0.589	
COc1ccc(-n2nc(C(=O)N3CC[C@@H](F)C3)c3csc(N)c3c2=O)cc1 [Compound 107]	+			−						Plaques (staining) ([9]; Table 3, 1 μM): −; Plaques (staining) ([9]; Table 3, 10 μM): −
